Measurements published in patent US5929254A, “1,2-dioxetane derivatives” (Fujirebio Inc., priority 1996, dated 1999).

What was measured:
[1] = Chemiluminescence on addition to cesium hydroxide in methanol or aqueous methanol, measured with a fluorescence analyzer; type: physicochemical; conditions: 25° C.
Method: 1 ml of a 3.12×10^-3 M methanol solution of 4-(4-acetyl-3-hydroxyphenyl)-3,3-(bicyclo[3.3.1]nonan-3,7-diyl)-4-methoxy- 1,2-dioxethane (Compound [10]) synthesized in Example 2 was added to 2 ml of a 1.5×10^-1 M methanol solution of cesium hydroxide at 25° C.
The luminescence at the moment of the addition of the compound [10] to the methanol solution of cesium hydroxide was measured with a fluorescence analyzer in the same manner as in Test Example 1.
(§1) The measurement of the luminescence of the compound [10] in Test Example 2 was repeated in the same manner as in Test Example 2 except that the methanol used as the solvent for cesium hydroxide employed in Test Example 2 was replaced by an aqueous solution of methanol (water: 50%) without changing the concentration of cesium in the diluted methanol solution.
Thus, the luminescence at the moment of the addition of the compound [10] to the diluted methanol solution of cesium hydroxide was measured with a fluorescence analyzer in the same manner as in Test Example 1.
as §1, with “97%)” for “50%)”
1 ml of a 3.12×10^-3 M methanol solution of 3,3-(bicyclo[3.3.1]nonan-3,7-diyl)-4-(3-hydroxyphenyl)-4-methoxy-1,2-dioxetane (Comparative Compound) was added to 2 ml of a 1.5×10^-1 M methanol solution of cesium hydroxide at 25° C.
It was tried to measure the luminescence at the moment of the addition of the comparative compound to the methanol solution of cesium hydroxide with a fluorescence analyzer in the same manner as in Test Example 1.
(§2) The measurement of he luminescence of the comparative compound in Comparative Test Example 2 was repeated in the same manner as in Comparative Test Example 2 except that the methanol used as the solvent for cesium hydroxide employed in Comparative Test Example 2 was replaced by an aqueous solution of methanol (water: 50%) without changing the concentration of cesium in the diluted methanol solution.
Thus, the luminescence at the moment of the addition of the comparative compound to the diluted methanol solution of cesium hydroxide was measured with a fluorescence analyzer in the same manner as in Test Example 1.
as §2, with “of the” for “of he”, “(water: 97%)” for “(water: 50%)”

[2] = Chemiluminescence on addition to tetrabutylammonium fluoride in DMSO, measured with a fluorescence analyzer; type: physicochemical; conditions: tetrabutylammonium fluoride 1.5×10^-1 M, 25° C.
Method: 1 ml of a […] dimethylsulfoxide(DMSO) solution of 4-(4-acetyl-3-hydroxyphenyl)-3,3-(bicyclo[3.3.1]nonan-3,7-diyl)-4-methoxy- 1,2-dioxethane (Compound [10]) synthesized in Example 2 was added to 2 ml of 1.5×10^-1 M DMSO solution of tetrabutylammonium fluoride at 25° C.
The luminescence at the moment of the addition of the compound [10] to the DMSO solution of tetrabutylammonium fluoride was measured with a fluorescence analyzer.
1 ml of a 2.94×10^-3 M dimethylsulfoxide (DMSO) solution of 3,3-(bicyclo[3.3.1]nonan-3,7-diyl)-4-(3-hydroxyphenyl)-4-methoxy-1,2-dioxetane (Comparative Compound) was added to 2 ml of 1.5×10^-1 M DMSO solution of tetrabutylammonium fluoride at 25° C.
The luminescence at the moment of the addition of the comparative compound to the DMSO solution of tetrabutylammonium fluoride was measured with a fluorescence analyzer in the same manner as in Example 1.

[3] = Aqueous solution of methanol (water: 50%), cesium hydroxide
[4] = Aqueous solution of methanol (water: 97%), cesium hydroxide
[5] = Methanol, cesium hydroxide 1.5×10^-1 M, compound 3.12×10^-3 M
[6] = methanol solution of cesium hydroxide, in words

| Half-life (sec) of Luminescence [1, 3] | Luminescence Quantum Efficiency [1, 3] | λmax (nm) [1, 3] | Half-life (sec) of Luminescence [1, 4] | Luminescence Quantum Efficiency [1, 4] | λmax (nm) [1, 4] | Half-life (sec) of Luminescence [1, 5] | Luminescence Quantum Efficiency [1, 5] | λmax (nm) [1, 5] | Luminescence Quantum Efficiency [2] | λmax (nm) [2] | intensity of the luminescence [1, 6] | Structure (SMILES) | Half-life (sec) of Luminescence [2] | half-life of the luminescence [1, 6] |
| --- | --- | --- | --- | --- | --- | --- | --- | --- | --- | --- | --- | --- | --- | --- |
| 29000 s | 0.023 | 496 nm | 8200 s | 0.0064 | 496 nm | 120000 s | 0.030 | 493 nm | 0.13 | 486 nm | – | COC1(c2ccc(C(C)=O)c(O)c2)OOC12C1CC3CC(C1)CC2C3 (centres unmarked) [Compound [10], 4-(4-acetyl-3-hydroxyphenyl)-3,3-(bicyclo[3.3.1]nonan-3,7-diyl)-4-methoxy-1,2-dioxethane] | 23000 s | – |
| 452 s | 3.9 × 10^-5 | 472 nm | 173 s | 6.7 × 10^-6 | 474 nm | – | – | – | 0.22 | 465 nm | extremely small | COC1(c2cccc(O)c2)OOC12C1CC3CC(C1)CC2C3 (centres unmarked) [Comparative Compound, 3,3-(bicyclo[3.3.1]nonan-3,7-diyl)-4-(3-hydroxyphenyl)-4-methoxy-1,2-dioxetane, reference compound] | 5.1 s | extremely long |
